# Measured values from US20210113540A1, “TREATMENT AGENT AND PHARMACEUTICAL COMPOSITION FOR GLIOMA” (NATIONAL UNIVERSITY CORPORATION HOKKAIDO UNIVERSITY, priority 2018, published 2021).
# Read-outs that look alike come from different tables or passages of the source.
# Legend:
# [1] = test system: Glioma-initiating cell E6R; test: Cell growth test (MTT) on GICR strain E6R; format: cell-based; details: Homo sapiens, 72 h
# Protocol: GICR strain: Cell growth test was performed using E6R (Stem Cells. 2016 August; 34(8):2016-25.).
# Cell culture solutions were obtained by mixing a medium prepared by adding various compounds, bFGF (Peprotech, 100-18B) and EGF (Peprotech, 100-15) to DMEM/Ham's F-12 medium (SIGMA, D8062) and a medium prepared by adding FCS (Hyclone, SH30910.03) to DMEM medium (Nacalai tesque, 08458-45) to a concentration of 10% for use.
# Each compound adjusted to a predetermined concentration was dispensed into a 96-well plate (Falcon, 353072) at 80 μL/well, and E6 cells and E6R cells were seeded on the 96-well plate at 1000 cells/80 μL/well. After 3 days, 10 μL of an MTT reagent (DOJINDO, 341-01823) was added, the cells were incubated at 37° C. for 3 hours, the culture solution was removed, and 100 μL of DMSO was added. The absorbance at 570 nm was measured using Bio-Rad iMark (Bio-Rad, 168-1130JA). The growth inhibition rate at each test compound concentration was calculated by the following formula using the absorbance as an index of the viable cell count.
# The growth inhibition rate at each compound concentration was determined, and the 50% growth inhibition concentration GI50 (μmol/L)] was calculated using XLfit. Growth inhibition rate (%)=(Amount of luminescence from wells supplemented with test compound)/(Amount of luminescence from wells supplemented with DMSO)×100
# GIC and GICR strain: Cell growth test was performed using E6, E6R, E16, and E16R (Stem Cells. 2016 August; 34(8): 2016-25.).
# [2] = test system: SOX2 in GICs (E6); test: SOX2 immunostaining, SOX2/DAPI positive rate in GICs (E6); format: cell-based, human
# Protocol: (§1) The extranuclear elimination of compound 8-dependent SOX2 is dependent on the extranuclear transport factor, Exportin (also known as CRM1). The cells were cultured for one day in the presence of Compound 8 (10 μM) and a CRM1-specific inhibitor leptomycin B (LMB, 150 nM), and GICs were immunostained with the SOX2 antibody. As a result, the SOX2/DAPI positive rate in GICs (E6) was as follows: Control: 95±2%, supplemented with Compound 8: 7±3%, supplemented with Compound 8+LMB: 87±9%; the SOX2/DAPI positive rate in GICs (E16) was as follows: Control: 72±11%, supplemented with compound 8: 0.5±1%, supplemented with Compound 8+LMB: 81±10%. The addition of LMB suppressed Compound 8-dependent extranuclear elimination of SOX2.
# (§2) When UDP-GlcNAc was added after the chemical was added to GIC, reduced SOX2 expression in GICs and the cytotoxic activity of Compound 8 on GICs were neutralized (FIGS. 3 and 4). SOX2 K75A in which lysine 75 involved in the binding of CRM1 and SOX2 was substituted with alanine and SOX2 S248A in which the 0-GlcNAcylation target serine 248 was substituted with alanine were prepared, thereby establishing GICs that constitutively express these SOX2 mutants and wild-type SOX2 (SOX2 wt). After treatment with Compound 8, the localization of SOX2 was examined by immunostaining using an anti-FLAG antibody, and the viability of GICs expressing these mutants was examined by MTT assay (FIG. 5). In the presence of Compound 8, SOX2 K75A was present in the nucleus and partially neutralized the cytotoxic activity of Compound 8. SOX2 S248A was not retained in the nucleus by treatment with Compound 8, and no inhibitory effect on cytotoxic activity was observed. […] The SOX2/DAPI positive rate was as follows: GIC (E6): Control: 0%, SOX2 wt: 36±5%, SOX2 K75A: 63±5%, SOX2 S248A: 18±2%; GIC (E16): Control: 0%, SOX2 wt: 22±4%, SOX2 K75A: 58±6%, SOX2 S248A: 15±3%. Error bar: ±SD. Statistical processing is t-test. *P<0.05, **P<0.01, ***P<0.001. GIC was cultured for 2 days with Compound 8 (10 μmol/L) alone or together with UDP-GlcNAc (1 mmol/L), and immunostaining was performed for SOX2 and NESTIN. As a result, the addition of UDP-GlcNAc suppressed Compound 8-dependent extranuclear elimination of SOX2.
# (§3) OSMI-1, which is an O-GlcNAc transferase (OGT)-specific inhibitor, suppresses GIC growth and SOX2 expression. (A) GICs were cultured for 3 days in the presence of various concentrations of OSMI-1, and cell growth was examined using MTT assay (FIG. 6). (B) The results of immunostaining for SOX2 and NESTIN using GICs cultured for 2 days in the presence of 20 μmol/L OSMI-1 and calculating the SOX2 positive rate (SOX2/DAPI) are shown below.
# [3] = test system: SOX2 in GICs (E16); test: SOX2 immunostaining, SOX2/DAPI positive rate in GICs (E16); format: cell-based, human
# Protocol: as §1, §2, §3
# [4] = test system: GIC strains (E6 cell, E16 cell); test: Immunostaining of differentiated and undifferentiated markers in GIC strains; format: cell-based, human; details: Compound 8 10 μM, E6 and E16 cells, FIG. 1
# [5] = test system: Temozolomide-resistant E6 (E6R); test: Xenograft model, subcutaneous E6R in NOD/SCID mice; format: in vivo
# Protocol: Temozolomide-resistant E6 (E6R, 1×10^6) was subcutaneously transplanted into NOD/SCID mice (n=6), and Compound 8 (1.0 mg/kg) was orally administered for 11 consecutive days after the long diameter and short diameter of tumor became 5 to 6 mm. […] The size of tumor was calculated as (long diameter)×(short diameter)^2/2. Tumors were excised from Compound 8 treated mice and control mice on Day 12 from the start of oral administration of Compound 8 and fixed with 4% paraformaldehyde, followed by preparation of frozen sections. As a result, tumor cell aggregates disappeared by treatment with Compound 8.
# [6] = test system: E6 cells; test: Quantitative determination of metabolites by LC-MS/MS in E6 cells; format: cell-based, human; design: dose or concentration left out as unconfirmed; details: 24 hours, compared to control DMSO-treated group
# Protocol: (§4) Compound 8 was added to GICs (E6, E16) at […] and treated for 24 hours. Cells were washed with a 5% mannitol solution, 70% ice-cold methanol was added, and metabolites were extracted. […] In addition, the amount of orotic acid was decreased in E16 cells.
# [7] = test system: E16 cells; test: Quantitative determination of metabolites by LC-MS/MS in E16 cells; format: cell-based, human; design: dose or concentration left out as unconfirmed; details: 24 hours
# Protocol: as §4
# [8] = after treatment with Compound 8, anti-FLAG immunostaining
# [9] = 1.0 mg/kg orally, tumors excised on Day 12
smiles,measurement,setting,value
"O=C(O)c1cc(C2CC2)cnc1Nc1ccc2c(ccn2-c2ccccc2)c1 [Compound 8, 5-cyclopropyl-2-((1-phenyl-1H-indole-5-yl)amino)nicotinic acid]",GI50,"[1]; MTT after 3 days, read-out: ER6 GI50",11.8 nM
same,GI50,"[1]; class of ER6 GI50, MTT after 3 days, read-out: Evaluation",< 1000 nM
same,SOX2/DAPI positive rate in GICs (E6),"[2]; Compound 8 10 μM, LMB 150 nM where added, cultured one day, control 95±2%",7±3%
same,"SOX2/DAPI positive rate, GIC (E6) expressing SOX2 K75A",[2]; [8],63±5%
same,"SOX2/DAPI positive rate, GIC (E6) expressing SOX2 S248A",[2]; [8],18±2%
same,"SOX2/DAPI positive rate, GIC (E6) expressing SOX2 wt",[2]; [8],36±5%
same,SOX2/DAPI positive rate in GICs (E16),"[3]; Compound 8 10 μM, LMB 150 nM where added, cultured one day, control 72±11%",0.5±1%
same,"SOX2/DAPI positive rate, GIC (E16) expressing SOX2 K75A",[3]; [8],58±6%
same,"SOX2/DAPI positive rate, GIC (E16) expressing SOX2 S248A",[3]; [8],15±3%
same,"SOX2/DAPI positive rate, GIC (E16) expressing SOX2 wt",[3]; [8],22±4%
same,"expression of differentiation markers (βIII tubulin, GFAP, GC)",[4],increased
same,positive rate of neural stem cell markers SOX2 and NESTIN,[4],remarkable decrease
same,tumor growth (size of tumor),"[5]; 1.0 mg/kg orally for 11 consecutive days, FIG. 2",reduced tumor growth
same,SOX2 in the mouse tumor tissue,[5]; [9],disappearance of SOX2
same,tumor cell aggregates in excised tumor sections,[5]; [9],disappeared
same,increase of the amount of DHO in E6 cells,[6],596 fold
same,amount of orotic acid in E16 cells,[7],decreased
same,increase of the amount of DHO in E16 cells,[7]; compared to control DMSO-treated group,125 fold
